From patent US10807985B2 (Blueprint Medicines Corporation, priority 2013, dated 2020)
pIC50: −log10 of the molar value.

Legend:
[1] = target: KIT D816V kinase activity (KIT autophosphorylation at tyrosine 719) in HMC1.2 cells (Homo sapiens (Human), UniProt P10721, D816V/V560G); assay: HMC1.2 autophosphorylation assay (phospho-Y719 c-KIT AlphaLISA); type: cell-based; conditions: HMC1.2 mast cell leukemia cell line (KIT V560G, D816V), 90 minutes compound; read-out: INH-KIT-PHOS-HMC1.2
D816V KIT = D816V KIT (Homo sapiens (Human), UniProt P10721, D816V); assay: KIT D816V assay at Km (Caliper electrophoretic mobility shift); conditions: biochemical, 15 uM ATP (Km), 90 minutes at 25 C; read-out: INH KIT D816V
Chain of D816V KIT (P10721 26-976 D816V): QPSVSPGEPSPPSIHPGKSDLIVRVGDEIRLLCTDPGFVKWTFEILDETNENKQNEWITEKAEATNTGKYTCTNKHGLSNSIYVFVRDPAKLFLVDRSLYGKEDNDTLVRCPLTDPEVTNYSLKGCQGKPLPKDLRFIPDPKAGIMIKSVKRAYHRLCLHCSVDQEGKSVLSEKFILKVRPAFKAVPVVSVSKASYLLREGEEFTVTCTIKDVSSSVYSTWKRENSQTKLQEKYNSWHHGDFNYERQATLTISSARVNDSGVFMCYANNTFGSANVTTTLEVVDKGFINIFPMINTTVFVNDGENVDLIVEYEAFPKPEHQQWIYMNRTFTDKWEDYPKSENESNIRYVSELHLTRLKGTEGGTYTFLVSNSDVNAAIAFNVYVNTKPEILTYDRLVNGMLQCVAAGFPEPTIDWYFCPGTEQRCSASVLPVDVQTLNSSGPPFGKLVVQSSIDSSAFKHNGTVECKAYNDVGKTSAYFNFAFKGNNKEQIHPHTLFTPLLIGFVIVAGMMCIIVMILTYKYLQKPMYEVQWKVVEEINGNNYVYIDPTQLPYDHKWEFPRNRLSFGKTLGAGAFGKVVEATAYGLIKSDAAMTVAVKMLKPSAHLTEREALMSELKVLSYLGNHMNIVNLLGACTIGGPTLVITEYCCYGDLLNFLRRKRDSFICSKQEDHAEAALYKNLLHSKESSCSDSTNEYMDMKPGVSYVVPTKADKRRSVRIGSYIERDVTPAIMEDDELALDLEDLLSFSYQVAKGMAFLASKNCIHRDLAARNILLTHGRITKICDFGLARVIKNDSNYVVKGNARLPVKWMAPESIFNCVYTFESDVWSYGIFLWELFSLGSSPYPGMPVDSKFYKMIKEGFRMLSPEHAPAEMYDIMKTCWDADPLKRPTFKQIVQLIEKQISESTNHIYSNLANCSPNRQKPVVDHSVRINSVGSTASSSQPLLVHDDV

PDGFRA D842V = PDGFRA D842V (Homo sapiens (Human), UniProt P16234, D842V); assay: PDGFRA D842V assay at Km (Caliper electrophoretic mobility shift); conditions: biochemical, 15 uM ATP (Km), 90 minutes at 25 C; read-out: INH PDFGRA D842V
Chain of PDGFRA D842V (P16234 24-1089 D842V): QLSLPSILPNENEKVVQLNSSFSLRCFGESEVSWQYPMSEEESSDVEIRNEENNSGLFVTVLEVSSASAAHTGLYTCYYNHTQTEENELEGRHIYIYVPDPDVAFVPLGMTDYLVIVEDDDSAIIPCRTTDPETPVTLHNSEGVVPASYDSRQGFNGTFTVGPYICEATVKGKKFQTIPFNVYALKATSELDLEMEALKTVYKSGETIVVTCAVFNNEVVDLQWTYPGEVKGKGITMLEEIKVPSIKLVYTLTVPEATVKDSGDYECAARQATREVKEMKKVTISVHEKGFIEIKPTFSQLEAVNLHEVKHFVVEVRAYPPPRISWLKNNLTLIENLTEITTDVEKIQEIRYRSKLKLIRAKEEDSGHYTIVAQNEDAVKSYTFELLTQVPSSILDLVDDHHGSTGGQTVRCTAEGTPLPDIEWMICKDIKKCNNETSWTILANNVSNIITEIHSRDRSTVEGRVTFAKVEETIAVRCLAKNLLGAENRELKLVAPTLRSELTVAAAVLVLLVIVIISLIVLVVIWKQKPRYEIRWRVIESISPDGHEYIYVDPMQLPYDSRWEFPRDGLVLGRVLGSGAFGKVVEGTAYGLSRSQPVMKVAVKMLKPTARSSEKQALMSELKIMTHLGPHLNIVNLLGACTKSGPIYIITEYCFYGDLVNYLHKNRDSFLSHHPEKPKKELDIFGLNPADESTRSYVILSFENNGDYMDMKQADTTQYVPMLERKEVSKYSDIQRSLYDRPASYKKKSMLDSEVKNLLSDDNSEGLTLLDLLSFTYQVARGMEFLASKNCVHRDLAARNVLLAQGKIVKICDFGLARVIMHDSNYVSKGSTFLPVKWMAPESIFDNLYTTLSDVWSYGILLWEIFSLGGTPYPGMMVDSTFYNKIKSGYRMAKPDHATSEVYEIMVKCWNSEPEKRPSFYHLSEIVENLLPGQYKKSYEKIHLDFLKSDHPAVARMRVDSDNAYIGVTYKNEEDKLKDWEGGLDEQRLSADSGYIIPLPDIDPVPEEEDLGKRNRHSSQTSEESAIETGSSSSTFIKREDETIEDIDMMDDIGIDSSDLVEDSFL

Chain of KIT D816V kinase activity (KIT autophosphorylation at tyrosine 719) in HMC1.2 cells (P10721 26-976 V560G/D816V): as the sequence (P10721 26-976 D816V) above, with V535G counted along it

SMILES | pIC50 [1] | pIC50 (D816V KIT) | pIC50 (PDGFRA D842V)
CC[C@@H](c1ccc(F)cc1)c1cnc(N2CCN(c3ncnn4cc(-c5cnn(C)c5)cc34)CC2)nc1 (single isomer, unassigned) [Compound 41] | 7.00 to 7.30 | 8.00 to 9.00 | 8.00 to 9.00
C[C@H](c1ccccc1)c1cnc(N2CCN(c3ncnn4cc(-c5cnn(C)c5)cc34)CC2)nc1 [Compound 9, (R)-6-(1-methyl-1H-pyrazol-4-yl)-4-(4-(5-(1-phenylethyl)pyrimidin-2-yl)piperazin-1-yl)pyrrolo[1,2-f][1,2,4]triazine] | > 7.30 | 8.00 to 9.00 | 8.00 to 9.00
C[C@@H](c1ccccc1)c1cnc(N2CCN(c3ncnn4cc(-c5cnn(C)c5)cc34)CC2)nc1 [Compound 10, (S)-6-(1-methyl-1H-pyrazol-4-yl)-4-(4-(5-(1-phenylethyl)pyrimidin-2-yl)piperazin-1-yl)pyrrolo[1,2-f][1,2,4]triazine] | > 7.30 | > 9.00 | > 9.00
Cn1cc(-c2cc3c(N4CCN(c5ncc(Cc6ccc(F)cc6)cn5)CC4)ncnn3c2)cn1 [Compound 14] | > 7.30 | > 9.00 | 8.00 to 9.00
COc1ccc(-c2cc3c(N4CCN(c5ncc(Cc6ccccc6)cn5)CC4)ncnn3c2)cc1 [Compound 18] | < 5.00 | 7.00 to 8.00 | 7.00 to 8.00
Cn1cc(-c2cc3c(N4CCN(c5ncc(C(C)(C)c6ccccc6)cn5)CC4)ncnn3c2)cn1 [Compound 20] | > 7.30 | 8.00 to 9.00 | 8.00 to 9.00
Cn1cc(-c2cc3c(N4CCN(c5ncc([C@](C)(N)c6ccccc6)cn5)CC4)ncnn3c2)cn1 [Compound 21] | 7.00 to 7.30 | 8.00 to 9.00 | > 9.00
Cn1cc(-c2cc3c(N4CCN(c5ncc([C@@](C)(N)c6ccccc6)cn5)CC4)ncnn3c2)cn1 [Compound 22] | > 7.30 | > 9.00 | > 9.00
C[C@](N)(c1ccc(F)cc1)c1cnc(N2CCN(c3ncnn4cc(-c5cn[nH]c5)cc34)CC2)nc1 [Compound 26] | > 7.30 | > 9.00 | > 9.00
C[C@@](O)(c1ccc(F)cc1)c1cnc(N2CCN(c3ncnn4cc(-c5cn[nH]c5)cc34)CC2)nc1 [Compound 29] | 7.00 to 7.30 | 8.00 to 9.00 | 8.00 to 9.00
C[C@](O)(c1ccc(F)cc1)c1cnc(N2CCN(c3ncnn4cc(-c5cn[nH]c5)cc34)CC2)nc1 [Compound 30] | > 7.30 | > 9.00 | > 9.00
C[C@](N)(c1ccccc1)c1cnc(N2CCN(c3ncnn4cc(-c5ccc(F)cc5)cc34)CC2)nc1 [Compound 34] | 7.00 to 7.30 | > 9.00 | > 9.00
CCn1cc(-c2cc3c(N4CCN(c5ncc([C@@](C)(N)c6ccccc6)cn5)CC4)ncnn3c2)cn1 [Compound 35] | > 7.30 | > 9.00 | > 9.00
C[C@](O)(c1ccc(F)cc1)c1cnc(N2CCN(c3ncnn4cc(-c5ccccc5)cc34)CC2)nc1 [Compound 38] | 7.00 to 7.30 | 8.00 to 9.00 | 8.00 to 9.00
Cn1cc(-c2cc3c(N4CCN(c5ncc(C(C)(C)c6ccc(F)cc6)cn5)CC4)ncnn3c2)cn1 [Compound 39] | > 7.30 | 8.00 to 9.00 | > 9.00
Cn1cc(-c2cc3c(N4CCN(c5ncc([C@](C)(O)c6ccc(F)cc6)cn5)CC4)ncnn3c2)cn1 [Compound 45] | > 7.30 | > 9.00 | > 9.00
C[C@](O)(c1cnc(N2CCN(c3ncnn4cc(-c5cn[nH]c5)cc34)CC2)nc1)c1ccc(F)cc1F [Compound 57] | > 7.30 | > 9.00 | 8.00 to 9.00
C[C@@](O)(c1cnc(N2CCN(c3ncnn4cc(-c5cn[nH]c5)cc34)CC2)nc1)c1ccc(F)cc1F [Compound 58] | – | > 9.00 | > 9.00
C[C@](N)(c1ccc(F)cc1)c1cnc(N2CCN(c3ncnn4cc(-c5ccc(F)cc5)cc34)CC2)nc1 [Compound 62] | 7.00 to 7.30 | 8.00 to 9.00 | 8.00 to 9.00
C[C@](O)(c1ccc(F)cc1)c1cnc(N2CCN(c3ncnn4cc(-c5ccc(F)cc5)cc34)CC2)nc1 [Compound 65] | 6.00 to 7.00 | 8.00 to 9.00 | 8.00 to 9.00
CO[C@](C)(c1ccc(F)cc1)c1cnc(N2CCN(c3ncnn4cc(-c5cnn(C)c5)cc34)CC2)nc1 [Compound 68] | > 7.30 | 8.00 to 9.00 | 8.00 to 9.00
C[C@@H]1CN(c2ncnn3cc(-c4cnn(C)c4)cc23)CCN1c1ncc([C@](C)(O)c2ccc(F)cc2)cn1 [Compound 76] | 7.00 to 7.30 | 8.00 to 9.00 | 8.00 to 9.00
C[C@@H]1CN(c2ncnn3cc(-c4cnn(C)c4)cc23)CCN1c1ncc([C@@](C)(O)c2ccc(F)cc2)cn1 [Compound 77] | > 7.30 | 8.00 to 9.00 | > 9.00
Cn1cc(-c2cc3c(N4CCN(c5ncc([C@@](C)(CO)c6ccc(F)cc6)cn5)CC4)ncnn3c2)cn1 [Compound 78] | > 7.30 | > 9.00 | > 9.00
Cn1cc(-c2cc3c(N4CCN(c5ncc([C@](C)(CO)c6ccc(F)cc6)cn5)CC4)ncnn3c2)cn1 [Compound 79] | > 7.30 | 8.00 to 9.00 | > 9.00

SMILES | pIC50 [1] | pIC50 (D816V KIT) | pIC50 (PDGFRA D842V)
Cn1cc(-c2cc3c(N4CCN(c5ncc([C@](C)(O)c6ccc(Cl)cc6)cn5)CC4)ncnn3c2)cn1 [Compound 84] | > 7.30 | 8.00 to 9.00 | 8.00 to 9.00
Cn1cc(-c2cc3c(N4CCN(c5ncc([C@](C)(N)c6ccc(F)cc6F)cn5)CC4)ncnn3c2)cn1 [Compound 86] | > 7.30 | > 9.00 | > 9.00
Cc1ncc(-c2cc3c(N4CCN(c5ncc([C@](C)(O)c6ccc(F)cc6)cn5)CC4)ncnn3c2)s1 [Compound 87] | 6.00 to 7.00 | 8.00 to 9.00 | 8.00 to 9.00
Cc1ncc(-c2cc3c(N4CCN(c5ncc([C@@](C)(O)c6ccc(F)cc6)cn5)CC4)ncnn3c2)s1 [Compound 88] | > 7.30 | > 9.00 | –
Cn1cc(-c2cn3ncnc(N4CCN(c5ncc([C@](C)(O)c6ccc(F)cc6)cn5)CC4)c3c2F)cn1 [Compound 89] | 5.00 to 6.00 | < 7.00 | –
Cn1cc(-c2cn3ncnc(N4CCN(c5ncc([C@@](C)(O)c6ccc(F)cc6)cn5)CC4)c3c2F)cn1 [Compound 90] | 5.00 to 6.00 | < 7.00 | –
Cn1cc(-c2cc3c(N4CCN(c5ncc([C@](C)(O)c6c(F)cccc6F)cn5)CC4)ncnn3c2)cn1 [Compound 91] | 7.00 to 7.30 | > 9.00 | –
Cn1cc(-c2cc3c(N4CCN(c5ncc([C@@](C)(O)c6c(F)cccc6F)cn5)CC4)ncnn3c2)cn1 [Compound 92] | > 7.30 | 8.00 to 9.00 | –
Cn1cc(-c2cc3c(N4CCN(c5ncc([C@@](C)(O)c6ccc(F)cc6F)cn5)CC4)ncnn3c2)cn1 [Compound 94] | > 7.30 | > 9.00 | > 9.00
Cn1cc(-c2cc3c(N4CCN(c5ncc([C@@](O)(CF)c6ccc(F)cc6)cn5)CC4)ncnn3c2)cn1 [Compound 95] | 7.00 to 7.30 | > 9.00 | –
Cn1cc(-c2cc3c(N4CCN(c5ncc(S(=O)(=O)c6ccc(F)cc6)cn5)CC4)ncnn3c2)cn1 [Compound 99] | 5.00 to 6.00 | 7.00 to 8.00 | –
COc1cccc(-c2cc3c(N4CCN(c5ncc([C@@](C)(O)c6ccc(F)cc6)cn5)CC4)ncnn3c2)c1 [Compound 101] | 7.00 to 7.30 | 7.00 to 8.00 | –
Cn1cc(-c2cc3c(N4CCN(c5ncc([C@](O)(c6ccc(F)cc6)C6CC6)cn5)CC4)ncnn3c2)cn1 [Compound 103] | 6.00 to 7.00 | 8.00 to 9.00 | –
Cn1cc(-c2cc3c(N4CCN(c5ncc([C@@](O)(c6ccc(F)cc6)C6CC6)cn5)CC4)ncnn3c2)cn1 [Compound 104] | 6.00 to 7.00 | 8.00 to 9.00 | –
C[C@H](O)Cn1cc(-c2cc3c(N4CCN(c5ncc(Sc6ccccc6F)cn5)CC4)ncnn3c2)cn1 [Compound 105] | > 7.30 | 8.00 to 9.00 | –
Cn1cc(-c2cc3c(N4CCN(c5ncc(C(C)(C)c6c(F)cc(F)cc6F)cn5)CC4)ncnn3c2)cn1 [Compound 106] | > 7.30 | 8.00 to 9.00 | –
Cn1cc(-c2cn3ncnc(N4CCN(c5ncc([C@@](C)(O)c6ccc(F)cc6)cn5)CC4)c3c2Cl)cn1 [Compound 108] | 5.00 to 6.00 | < 7.00 | –
Cn1cc(-c2cc3c(N4CCN(c5ncc([C@](C)(O)c6ccc(F)cc6Cl)cn5)CC4)ncnn3c2)cn1 [Compound 109] | 6.00 to 7.00 | 7.00 to 8.00 | –
Cn1cc(-c2cc3c(N4CCN(c5ncc([C@@](C)(O)c6ccc(F)cc6Cl)cn5)CC4)ncnn3c2)cn1 [Compound 110] | > 7.30 | 8.00 to 9.00 | –
Cn1cc(-c2cc3c(N4CCN(c5ncc([C@](N)(c6ccc(F)cc6)C(F)F)cn5)CC4)ncnn3c2)cn1 [Compound 112] | 6.00 to 7.00 | 8.00 to 9.00 | –
Cn1cc(-c2cc3c(N4CCN(c5ncc([C@](C)(N)c6c(F)cc(F)cc6F)cn5)CC4)ncnn3c2)cn1 [Compound 113] | > 7.30 | > 9.00 | –
Cn1cc(-c2cc3c(N4CCN(c5ncc([C@@](C)(N)c6c(F)cc(F)cc6F)cn5)CC4)ncnn3c2)cn1 [Compound 114] | > 7.30 | > 9.00 | –
Cn1cc(-c2cc3c(N4CCN(c5ncc([C@](O)(c6ccc(F)cc6)C(F)F)cn5)CC4)ncnn3c2)cn1 [Compound 118] | 6.00 to 7.00 | 8.00 to 9.00 | –
c1ccc(Cc2cnc(N3CCN(c4ncnn5cc(-c6cnn(C[C@@H]7CNCCO7)c6)cc45)CC3)nc2)cc1 [Compound 120] | 7.00 to 7.30 | > 9.00 | –
CC(C)(C)OC(=O)N1CC=C(c2cc3c(N4CCN(c5ncc([C@@](C)(O)c6ccc(F)cc6)cn5)CC4)ncnn3c2)CC1 [Compound 124] | > 7.30 | 8.00 to 9.00 | –
